In patent US20080234188A1, “Antimicrobial Peptides” (The Hospital for Sick Children, priority 2001, published 2008):
Converted amounts (≈) assume the structure as drawn. Where a SMILES comes first, the peptide text is derived from it. Where no end group is shown, it is not given here.

What was measured:
[1] = tested on: E. coli DC2; experiment: Assay of antibacterial activity (MIC), E. coli DC2; format: cell-based, Escherichia coli; conditions: Table 3; Gram-negative
Excerpt: (§1) The bacterial strains used were E. coli C498, E. coli C500, Escherichia coli UB1005 and its antibiotic supersusceptible derivative DC2 (22); a clinical isolate of Staphylococcus epidermidis (C621); coryneform bacterial strain Corynebacterium xerosis (C875); and E. coli ATCC 25922, Staphylococcus aureus ATCC 25923, Enterococcus faecalis ATCC 29212, Bacillus subtilis ATCC 6633 and Pseudomonas aeruginosa ATCC 27853, all from American Type Culture Collection.
(§2) Peptide antibacterial activity was assessed by the method of R. Hancock et al. (Wu & Hancock (1999), J. Biol. Chem., v. 274, pp. 29-35). Test strains of bacteria from Mueller Hinton agar (MHA) plates were inoculated into 5 ml Mueller Hinton Broth (MHB) in tubes and grown overnight at 37° C. on a shaker (180 rpm). Serial dilutions of test peptides (at 10 times the required test concentrations) were made in 0.01% acetic acid, 0.2% BSA, in polypropylene or coated glass tubes as follows: the test peptide was (a) dissolved in distilled water at 20 times the required maximum concentration (enough final volume for all tests to be performed on a given day); (b) diluted into an equal volume of 0.02% acetic acid, 0.4% BSA to give 10 times the required maximum concentration; (c) serial doubling dilutions were performed in 0.01% acetic acid, 0.2% BSA to provide serial dilutions of peptides at 10 times the required test concentrations, e.g., 640, 320, 160, . . . 2.5 μg/ml. (No deleterious effects of long-term storage of peptides in these media have been detected). Overnight bacterial cultures were diluted in MHB to give 2−7×10^5 colony forming units/ml. Bacterial suspension (100 μl) was dispensed in each well; controls without bacteria were maintained in parallel. To each well was added 11 μl of 10× test peptide and plates were incubated at 37° C. for 18-24 hours, and checked again at 40-48 hours. Plates were read visually and at 600 nm in a microplate reader (Molecular Devices).
(§3) A further number of the peptides of the invention were tested for antimicrobial activity against a range of Gram-positive and Gram-negative bacteria by the assay described immediately before Example 1.

[2] = tested on: Corynebacterium xerosis (C875); format: cell-based
Excerpt: as §1, §2
(§4) were synthesized. The antibacterial activity of these peptides was determined against both Gram-positive bacteria ([…], Corynebacterium xerosis) and Gram-negative bacteria (various strains of E. coli). The results are shown in Table 2, along with the average hydrophobicity of each peptide, calculated as described herein.
as §3

[3] = tested on: Staphylococcus epidermidis (C621); format: cell-based
Excerpt: as §1, §2, §4, §3

[4] = tested on: Rabbit RBC; format: cell-based
Method: (§5) Erythrocytes from heparinized rabbit or human blood were washed three times with phosphate-buffered saline (PBS; 5 mM phosphate buffer, 0.14 M saline, pH 7.3), and centrifuged at 1000×g for 15 min at 4° C. The erythrocytes were diluted with PBS to 4% (v/v). Dilutions of the peptides in PBS were plated in 100 μl volumes in microtitre plates (Costar 3790, polypropylene) together with 100μl of the erythrocyte suspension. PBS was used as control and 100% lysis was determined in 0.1% Triton X-100. The plates were incubated at 37° C. for 1 h and then centrifuged at 1000×g for 5 min. 100 μl aliquots of the supernatant were transferred to microtitre plates (Nunc, polystyrene), and the release of hemoglobin was monitored by measurement of the absorbance at 540 nm in a microplate reader. The results are shown in Table 6, for peptide concentrations of […]. With only one or two exceptions, little or no hemolysis was seen.

[5] = tested on: E. coli UB1005; format: cell-based, Escherichia coli; conditions: UB1005
Excerpt: as §1, §2, §3

[6] = tested on: C498: E. coli, wild type strain; format: cell-based; conditions: for MIC C498: wild type strain
Excerpt: as §1, §2, §4

[7] = tested on: C500: E. coli, antibiotic strain; format: cell-based; conditions: for MIC C500: antibiotic strain
Excerpt: as §1, §2, §4

[8] = Hydrophobicity (hydropathy) from reverse-phase HPLC retention scale; format: physicochemical; parameters: key to Average Hydrophobicity of Core Sequence / Mean Core segment Hydrophobicity: arithmetic average of Table 1 hydropathy values of constituent residues; key to Hydropathy: hydropathy scale from HPLC retention times of model peptides (Table 1); conditions: for Average Hydrophobicity of Core Sequence: Table 2, calculated from Table 1 hydropathy values
Excerpt: The “hydrophobicity value” of an amino acid residue means the hydrophobicity value of that residue as shown in Table 1 or as calculated by the method described herein.
The “hydrophobicity value” of an amino acid sequence or peptide means the arithmetic average of the individual hydrophobicity values of the constituent amino acid residues of the sequence.
Various hydrophobicity scales for proteins and amino acids have been described in the literature but the inventors have established the hydrophobicity scale of Table 1 based on the retention times on HPLC of a series of hydrophobic model peptides, as described in Liu and Deber (1998), Biopolymers (Peptide Science), v. 47, pp. 41-62).
The hydrophobicity value shown for each amino acid in Table 1 as “hydropathy” may be used as the hydrophobicity value for that amino acid in any peptide whose hydrophobicity value has to be calculated. The “average hydrophobicity” of a peptide containing amino acids shown in Table 1 is calculated by determining the arithmetic average of the Table 1 “hydropathy” values for the constituent amino acids of the sequence.
Peptides in accordance with the invention may also include other amino acids. For an amino acid not included in Table 1, the hydrophobicity value may be determined by the same method as described herein for obtaining the values of Table 1. For example, a peptide such as KKAAAXAAAAAXAAXAAXAAAKKKK-amide (Sequence ID No: 1) may be synthesized, where X is the amino acid whose hydrophobicity value is to be determined, and the retention time of the peptide on HPLC is determined, as described in the Examples. Similar peptides where X is Lys or Phe are also prepared and their HPLC retention times determined. The retention time, Rx, is converted to the hydropathy value H for the selected amino acid using the equation
H=(10×ΔtRx-Lys/ΔtRPhe-Lys)−5.00
where ΔtRx-Lys=retention time difference in minutes between Rx and the retention time of the most hydrophilic peptide tested (X=Lys) and where ΔtRPhe-Lys=retention time difference in minutes between the most hydrophobic peptide tested (X=Phe) and the most hydrophilic (X=Lys).
The retention time of each peptide was determined on a C4 reversed-phase column (4.6×250 mm, 300 A pore size, 10 μ particle size). Equal amounts of each peptide were injected into the column and eluted at a flow rate of 1 mL/min, utilizing a linear AB gradient (2% B/min), where buffer A was 0.1% TFA/ddH2O, and buffer B was 0.1% TFA/acetonitrile. The retention time of each peptide reported here was the average of triplicate measurements.

[9] = tested on: Human RBC; format: cell-based
Method: as §5

| Compound | MIC E. coli DC2 [1] | MIC C. xerosis C875 [2] | MIC S. epidermidis C621 [3] | Rabbit RBC (% lysis) 50 μM [4] | Rabbit RBC (% lysis) 200 μM [4] | MIC E. coli UB1005 [5] | MIC C498 [6] | MIC C500 [7] | MIC C621 [3] | Mean residue hydropathy of X-residue peptide ([8]; Table 1) | Hydropathy ([8]; Table 1, of the X-residue, from HPLC retention of KKAAAXAAAAAXAAWAAXAAAKKKK-amide peptides) | Average Hydrophobicity of Core Sequence [8] | Mean Core segment Hydrophobicity ([8]; Table 3) | Human RBC (% lysis) 50 μM [9] | Human RBC (% lysis) 200 μM [9] | MIC C875 [2] | MIC C498 (active/inactive) ([6]; Table 2, class symbols) | MIC C500 (active/inactive) ([7]; Table 2, class symbols) | MIC C875 (active/inactive) ([2]; Table 2, class symbols) | MIC C621 (active/inactive) ([3]; Table 2, class symbols) |
| --- | --- | --- | --- | --- | --- | --- | --- | --- | --- | --- | --- | --- | --- | --- | --- | --- | --- | --- | --- | --- |
| C[C@H](NC(=O)[C@H](C)NC(=O)[C@H](C)NC(=O)[C@H](C)NC(=O)[C@H](C)NC(=O)[C@H](C)NC(=O)[C@H](C)NC(=O)[C@H](CCCCN)NC(=O)[C@@H](N)CCCCN)C(=O)N[C@@H](C)C(=O)N[C@@H](C)C(=O)N[C@@H](C)C(=O)N[C@@H](C)C(=O)N[C@@H](C)C(=O)N[C@@H](Cc1c[nH]c2ccccc12)C(=O)N[C@@H](C)C(=O)N[C@@H](C)C(=O)N[C@@H](C)C(=O)N[C@@H](C)C(=O)N[C@@H](C)C(=O)N[C@@H](C)C(=O)N[C@@H](CCCCN)C(=O)N[C@@H](CCCCN)C(=O)N[C@@H](CCCCN)C(=O)N[C@@H](CCCCN)C(N)=O [Peptide A25] (H-KKAAAAAAAAAAAAWAAAAAAKKKK-NH2; N-terminus assumed) | >64 µM | 2 µM (≈ 4.5 µg/mL) | >64 µM | 0 % lysis | 1 % lysis | >64 µM | – | – | – | – | – | – | – | – | – | – | – | – | – | – |
| CC[C@H](C)[C@H](NC(=O)[C@H](C)NC(=O)[C@H](C)NC(=O)[C@H](C)NC(=O)[C@H](CCCCN)NC(=O)[C@@H](N)CCCCN)C(=O)N[C@@H](C)C(=O)N[C@@H](C)C(=O)N[C@@H](C)C(=O)N[C@@H](C)C(=O)N[C@@H](C)C(=O)N[C@H](C(=O)N[C@@H](C)C(=O)N[C@@H](C)C(=O)N[C@@H](Cc1c[nH]c2ccccc12)C(=O)N[C@@H](C)C(=O)N[C@@H](C)C(=O)N[C@H](C(=O)N[C@@H](C)C(=O)N[C@@H](C)C(=O)N[C@@H](C)C(=O)N[C@@H](CCCCN)C(=O)N[C@@H](CCCCN)C(=O)N[C@@H](CCCCN)C(=O)N[C@@H](CCCCN)C(N)=O)[C@@H](C)CC)[C@@H](C)CC [Peptide I25] (H-KKAAAIAAAAAIAAWAAIAAAKKKK-NH2; N-terminus assumed) | 16 µM (≈ 38 µg/mL) | <0.25 µM | 4 µM (≈ 9.51 µg/mL) | – | – | >32 µM | 10 µM (≈ 23.8 µg/mL) | 10 µM (≈ 23.8 µg/mL) | 5 µM (≈ 11.9 µg/mL) | 1.09 | 4.41 | 1.09 | 1.09 | – | – | – | – | – | – | – |
| C[C@H](NC(=O)[C@H](C)NC(=O)[C@H](C)NC(=O)[C@H](CO)NC(=O)[C@H](C)NC(=O)[C@H](C)NC(=O)[C@H](C)NC(=O)[C@H](CCCCN)NC(=O)[C@@H](N)CCCCN)C(=O)N[C@@H](C)C(=O)N[C@@H](C)C(=O)N[C@@H](CO)C(=O)N[C@@H](C)C(=O)N[C@@H](C)C(=O)N[C@@H](Cc1c[nH]c2ccccc12)C(=O)N[C@@H](C)C(=O)N[C@@H](C)C(=O)N[C@@H](CO)C(=O)N[C@@H](C)C(=O)N[C@@H](C)C(=O)N[C@@H](C)C(=O)N[C@@H](CCCCN)C(=O)N[C@@H](CCCCN)C(=O)N[C@@H](CCCCN)C(=O)N[C@@H](CCCCN)C(N)=O [Peptide S25] (H-KKAAASAAAAASAAWAASAAAKKKK-NH2; N-terminus assumed) | >64 µM | >64 µM | >64 µM | 0 % lysis | 3 % lysis | >64 µM | – | – | – | – | – | – | – | 0 % lysis | 0 % lysis | – | – | – | – | – |
| C[C@H](NC(=O)[C@H](C)NC(=O)[C@H](C)NC(=O)[C@H](Cc1c[nH]c2ccccc12)NC(=O)[C@H](C)NC(=O)[C@H](C)NC(=O)[C@H](C)NC(=O)[C@H](CCCCN)NC(=O)[C@@H](N)CCCCN)C(=O)N[C@@H](C)C(=O)N[C@@H](C)C(=O)N[C@@H](Cc1c[nH]c2ccccc12)C(=O)N[C@@H](C)C(=O)N[C@@H](C)C(=O)N[C@@H](Cc1c[nH]c2ccccc12)C(=O)N[C@@H](C)C(=O)N[C@@H](C)C(=O)N[C@@H](Cc1c[nH]c2ccccc12)C(=O)N[C@@H](C)C(=O)N[C@@H](C)C(=O)N[C@@H](C)C(=O)N[C@@H](CCCCN)C(=O)N[C@@H](CCCCN)C(=O)N[C@@H](CCCCN)C(=O)N[C@@H](CCCCN)C(N)=O [Peptide W25] (H-KKAAAWAAAAAWAAWAAWAAAKKKK-NH2; N-terminus assumed) | 8 µM (≈ 20.8 µg/mL) | <0.25 µM | <0.25 µM | – | – | 16 µM (≈ 41.6 µg/mL) | 6 µM (≈ 15.6 µg/mL) | 3 µM (≈ 7.79 µg/mL) | 0.7 µM (≈ 1.82 µg/mL) | – | – | – | – | – | – | 0.2 µM (≈ 0.519 µg/mL) | – | – | – | – |
| KKATALVGAASLTAWVGLASAKKKK-NH2 | – | – | – | – | – | – | – | – | – | – | – | 0.62 | – | – | – | – | + | + | + | + |
